This note sets out measurements from ChEMBL document CHEMBL1255369, “In vitro susceptibility of isolates of Francisella tularensis types A and B from North America” (2008).

Broadly, the MIC50 is the lowest concentration that inhibits either 50% of growth or 50% of the strains tested, depending on the study. Usually MIC90 stands for the lowest concentration that inhibits either 90% of growth or 90% of the strains tested, depending on the study. Read a high MIC90 as weaker potency. In general, MIC refers to the lowest concentration found to suppress growth.

Values after ≈ are worked out from the molar mass of the structure shown.

Assay type in all cases: functional
Test [1] has as its system Francisella tularensis subsp. tularensis. Kind of test: (§1) Antimicrobial activity against Francisella tularensis subsp. tularensis after 48 hrs by broth microdilution method. In general terms: In broth dilution the organism is exposed to a series of concentrations in liquid medium.
Test [2] has as its system Francisella tularensis subsp. holarctica. The experiment in a line: (§2) Antimicrobial activity against Francisella tularensis subsp. holarctica after 48 hrs by broth microdilution method.
A short description of test [3]: as §1.
The nature of test [4]: as §2.
A short description of test [5]: Antimicrobial activity against Francisella tularensis subsp. holarctica LVS after 48 hrs by broth microdilution method.

In test [1], GENTAMICIN had an MIC50 of 0.06 µg/mL and an MIC90 of 0.12 µg/mL. In test [2], this compound displayed an MIC50 of 0.12 µg/mL and an MIC90 of 0.25 µg/mL.
In test [3], `C[C@H]1COc2c(N3CCN(C)CC3)c(F)cc3c(=O)c(C(=O)O)cn1c23.C[C@H]1COc2c(N3CCN(C)CC3)c(F)cc3c(=O)c(C(=O)O)cn1c23.O` [LEVOFLOXACIN] registered an MIC50 of 0.03 µg/mL and an MIC90 of 0.06 µg/mL. Also, in test [4], the MIC50 worked out at 0.03 µg/mL and the MIC90 came to 0.06 µg/mL.
As for `O=C(N[C@H](CO)[C@H](O)c1ccc([N+](=O)[O-])cc1)C(Cl)Cl` [CHLORAMPHENICOL], the figures for the MIC50 in test [3] and in test [4] were 1 µg/mL (≈ 3.09 µM) and 2 µg/mL (≈ 6.19 µM), respectively. In addition, the MIC90 in test [3] and in test [4] was 2 µg/mL (≈ 6.19 µM) each time.
In test [3], `O=C(O)c1cn(C2CC2)c2cc(N3CCNCC3)c(F)cc2c1=O` [CIPROFLOXACIN] yielded an MIC50 of 0.015 µg/mL (≈ 0.0453 µM) and an MIC90 of 0.03 µg/mL (≈ 0.0905 µM). In test [4], this compound yielded an MIC50 of 0.03 µg/mL (≈ 0.0905 µM) and an MIC90 of 0.06 µg/mL (≈ 0.181 µM).
In test [3], `CC[C@H]1OC(=O)[C@H](C)[C@@H](O[C@H]2C[C@@](C)(OC)[C@@H](O)[C@H](C)O2)[C@H](C)[C@@H](O[C@@H]2O[C@H](C)C[C@H](N(C)C)[C@H]2O)[C@](C)(O)C[C@@H](C)C(=O)[C@H](C)[C@@H](O)[C@]1(C)O` [ERYTHROMYCIN] came in with an MIC of 0.5 µg/mL (≈ 0.681 µM), an MIC50 of 0.5 µg/mL (≈ 0.681 µM) and an MIC90 of 0.5 µg/mL (≈ 0.681 µM). In test [4], this compound showed an MIC50 of 2 µg/mL (≈ 2.73 µM) and an MIC90 of 2 µg/mL (≈ 2.73 µM). The MIC in test [5] is over 256 µg/mL.
In test [3], `CN(C)[C@@H]1C(O)=C(C(N)=O)C(=O)[C@@]2(O)C(O)=C3C(=O)c4c(O)cccc4[C@@](C)(O)[C@H]3C[C@@H]12` [TETRACYCLINE] yielded an MIC50 of 0.5 µg/mL (≈ 1.13 µM) and an MIC90 of 1 µg/mL (≈ 2.25 µM). Further, in test [4], the MIC50 is 0.5 µg/mL (≈ 1.13 µM) and the MIC90 is 1 µg/mL (≈ 2.25 µM).
As to `C[C@H]1c2cccc(O)c2C(=O)C2=C(O)[C@]3(O)C(=O)C(C(N)=O)=C(O)[C@@H](N(C)C)[C@@H]3[C@@H](O)[C@@H]21.O` [DOXYCYCLINE], the MIC50 turned out to be 0.5 µg/mL in test [3] and 1 µg/mL in test [4]. In addition, the MIC90 in test [3] turned out to be 1 µg/mL; in test [4] it was 2 µg/mL.
In test [3], `CN[C@@H]1[C@H](O[C@H]2[C@H](O[C@H]3[C@H](O)[C@@H](O)[C@H](N=C(N)N)[C@@H](O)[C@@H]3N=C(N)N)O[C@@H](C)[C@]2(O)C=O)O[C@@H](CO)[C@H](O)[C@H]1O` [STREPTOMYCIN] came in with an MIC50 of 1 µg/mL (≈ 1.72 µM) and an MIC90 of 2 µg/mL (≈ 3.44 µM). In test [4], this compound gave an MIC50 of 1 µg/mL (≈ 1.72 µM) and an MIC90 of 2 µg/mL (≈ 3.44 µM).
